Patent US20020035061A1, “COMPOSITIONS AND METHODS FOR TREATING INFECTIONS USING CATIONIC PEPTIDES ALONE OR IN COMBINATION WITH ANTIBIOTICS” (priority 1996, published 2002)
Peptide text beside a SMILES is read from it.

Columns and labels:
Test in all cases: microbe, parasite or virus in culture
Assay type in all cases: cell-based
bacterial isolates = details: for Peptide MIC Alone: Tobramycin section
[1] = test system: inherently resistant microorganisms
[2] = test system: microorganisms with acquired resistance; details: for Peptide MIC: in µg/mL
[3] = test system: vancomycin / teicoplanin resistant enterococci
S. aureus = S. aureus SA25
[4] = S. aureus SA014 (also SA014 MRSA)
[5] = S. aureus SA025 (also SA025 MRSA)

CC[C@H](C)[C@H](NC(=O)[C@H](C)NC(=O)[C@@H]1CCCN1C(=O)CNC(=O)[C@H](C)NC(=O)[C@@H](NC(=O)[C@H](CCCCN)NC(=O)[C@H](CC(C)C)NC(=O)CNC(=O)[C@H](CO)NC(=O)[C@H](CC(C)C)NC(=O)[C@@H](NC(=O)[C@H](CCCNC(=N)N)NC(=O)[C@H](CCCNC(=N)N)NC(=O)[C@H](Cc1c[nH]c2ccccc12)NC(=O)[C@H](Cc1c[nH]c2ccccc12)NC(=O)[C@H](CCCCN)NC(=O)[C@@H](N)CCCCN)C(C)C)[C@@H](C)O)C(=O)N[C@@H](CCC(N)=O)C(=O)N[C@@H](CO)C(=O)N[C@H](C(=O)N[C@@H](CC(C)C)C(=O)N[C@@H](CC(N)=O)C(=O)N[C@@H](CCCCN)C(=O)O)C(C)C [MBI 21A1] (H-KKWWRRVLSGLKTAGPAIQSVLNK-OH; N-terminus and C-terminus assumed)
Peptide MIC + Tobramycin (bacterial isolates; B. cepacia BC001): 0.25 µg/mL | Tobramycin MIC + Peptide (bacterial isolates; B. cepacia BC001): 32 µg/mL | Peptide MIC Alone (bacterial isolates; B. cepacia BC001): >128 µg/mL | Mupirocin MIC + Peptide (bacterial isolates; E. coli ECO3): 3 µg/mL | Peptide MIC + Mupirocin (bacterial isolates; E. coli ECO3): 2 µg/mL | Mupirocin MIC + Peptide (bacterial isolates; E. coli SBECO2): 30 µg/mL | Peptide MIC + Mupirocin (bacterial isolates; E. coli SBECO2): 2 µg/mL | Peptide MIC + Vancomycin (bacterial isolates; E. faecalis EFS007): 1 µg/mL | Vancomycin MIC + Peptide (bacterial isolates; E. faecalis EFS007): 1 µg/mL | Peptide MIC + Vancomycin (bacterial isolates; E. faecalis EFS012): 1 µg/mL | Vancomycin MIC + Peptide (bacterial isolates; E. faecalis EFS012): 16 µg/mL | Peptide MIC + Vancomycin (bacterial isolates; E. faecalis EFS013): 1 µg/mL | Vancomycin MIC + Peptide (bacterial isolates; E. faecalis EFS013): 32 µg/mL | Peptide MIC + Vancomycin (bacterial isolates; E. faecium EFM010): 2 µg/mL | Vancomycin MIC + Peptide (bacterial isolates; E. faecium EFM010): 32 µg/mL | Ciprofloxacin MIC + Peptide (bacterial isolates; P. aeruginosa PA4): 0.125 µg/mL | Peptide MIC + Ciprofloxacin (bacterial isolates; P. aeruginosa PA4): 32 µg/mL | Peptide MIC + Tobramycin (bacterial isolates; P. aeruginosa PA022): 0.125 µg/mL | Tobramycin MIC + Peptide (bacterial isolates; P. aeruginosa PA022): 4 µg/mL | Peptide MIC Alone (bacterial isolates; P. aeruginosa PA022): 4 µg/mL | Peptide MIC + Tobramycin (bacterial isolates; P. aeruginosa PA026): 0.125 µg/mL | Tobramycin MIC + Peptide (bacterial isolates; P. aeruginosa PA026): 4 µg/mL | Peptide MIC Alone (bacterial isolates; P. aeruginosa PA026): 16 µg/mL | Ciprofloxacin MIC + Peptide (bacterial isolates; P. aeruginosa PA41): 1 µg/mL | Peptide MIC + Ciprofloxacin (bacterial isolates; P. aeruginosa PA41): 4 µg/mL | Mupirocin MIC + Peptide (bacterial isolates; P. aeruginosa SBPA1): 30 µg/mL | Peptide MIC + Mupirocin (bacterial isolates; P. aeruginosa SBPA1): 32 µg/mL | Peptide MIC + Tobramycin (bacterial isolates; [4]): 16 µg/mL | Tobramycin MIC + Peptide (bacterial isolates; [4]): 0.125 µg/mL | Peptide MIC Alone (bacterial isolates; [4]): 32 µg/mL | Ciprofloxacin MIC + Peptide (bacterial isolates; S. aureus SA25): 0.125 µg/mL | Peptide MIC + Ciprofloxacin (bacterial isolates; S. aureus SA25): 4 µg/mL | Peptide MIC + Tobramycin (bacterial isolates; [5]): 1 µg/mL | Tobramycin MIC + Peptide (bacterial isolates; [5]): 0.125 µg/mL | Peptide MIC Alone (bacterial isolates; [5]): 2 µg/mL | Ciprofloxacin MIC + Peptide (bacterial isolates; S. aureus SA93): 8 µg/mL | Peptide MIC + Ciprofloxacin (bacterial isolates; S. aureus SA93): 1 µg/mL | Peptide MIC + Tobramycin (bacterial isolates; S. haemolyticus SHA001): 4 µg/mL | Tobramycin MIC + Peptide (bacterial isolates; S. haemolyticus SHA001): 0.5 µg/mL | Peptide MIC Alone (bacterial isolates; S. haemolyticus SHA001): 16 µg/mL | Peptide MIC + Tobramycin (bacterial isolates; S. haemolyticus SHA005): 4 µg/mL | Tobramycin MIC + Peptide (bacterial isolates; S. haemolyticus SHA005): 1 µg/mL | Peptide MIC Alone (bacterial isolates; S. haemolyticus SHA005): 32 µg/mL | Peptide MIC + Tobramycin (bacterial isolates; S. maltophilia SMA029): 32 µg/mL | Tobramycin MIC + Peptide (bacterial isolates; S. maltophilia SMA029): 4 µg/mL | Peptide MIC Alone (bacterial isolates; S. maltophilia SMA029): 128 µg/mL | Peptide MIC + Tobramycin (bacterial isolates; S. maltophilia SMA030): 32 µg/mL | Tobramycin MIC + Peptide (bacterial isolates; S. maltophilia SMA030): 4 µg/mL | Peptide MIC Alone (bacterial isolates; S. maltophilia SMA030): >128 µg/mL | FIC (bacterial isolates; peptide + Ciprofloxacin, P. aeruginosa PA4): 0.50 | FIC (bacterial isolates; peptide + Ciprofloxacin, P. aeruginosa PA41): 0.50 | FIC (bacterial isolates; peptide + Ciprofloxacin, S. aureus SA25): 0.16 | FIC (bacterial isolates; peptide + Ciprofloxacin, S. aureus SA93): 0.50 | FIC (bacterial isolates; peptide + Mupirocin, E. coli ECO3): 0.28 | FIC (bacterial isolates; peptide + Mupirocin, E. coli SBECO2): 0.28 | FIC (bacterial isolates; peptide + Mupirocin, P. aeruginosa SBPA1): 0.53 | FIC (bacterial isolates; peptide + Tobramycin, B. cepacia BC001): 0.25 | FIC (bacterial isolates; peptide + Tobramycin, P. aeruginosa PA022): 0.53 | FIC (bacterial isolates; peptide + Tobramycin, P. aeruginosa PA026): 0.51 | FIC (bacterial isolates; peptide + Tobramycin, S. aureus SA014 (also SA014 MRSA)): 0.50 | FIC (bacterial isolates; peptide + Tobramycin, S. aureus SA025 (also SA025 MRSA)): 0.50 | FIC (bacterial isolates; peptide + Tobramycin, S. haemolyticus SHA001): 0.50 | FIC (bacterial isolates; peptide + Tobramycin, S. haemolyticus SHA005): 0.38 | FIC (bacterial isolates; peptide + Tobramycin, S. maltophilia SMA029): 0.28 | FIC (bacterial isolates; peptide + Tobramycin, S. maltophilia SMA030): 0.16 | FIC (bacterial isolates; peptide + Vancomycin, E. faecalis EFS007): 0.56 | FIC (bacterial isolates; peptide + Vancomycin, E. faecalis EFS012): 0.16 | FIC (bacterial isolates; peptide + Vancomycin, E. faecalis EFS013): 0.28 | FIC (bacterial isolates; peptide + Vancomycin, E. faecium EFM010): 0.56 | Peptide MIC Alone ([1]; E. coli, Mupirocin section): 2 µg/mL | FIC ([1]; peptide + Tobramycin, S. aureus): 0.50 | Peptide MIC + Tobramycin ([2]; P. aeruginosa PA022): 0.125 µg/mL | Tobramycin MIC + Peptide ([2]; P. aeruginosa PA022): 4 µg/mL | Peptide MIC Alone ([2]; P. aeruginosa PA022, Tobramycin section): 4 µg/mL | Peptide MIC + Tobramycin ([2]; P. aeruginosa PA026): 0.125 µg/mL | Tobramycin MIC + Peptide ([2]; P. aeruginosa PA026): 4 µg/mL | Peptide MIC Alone ([2]; P. aeruginosa PA026, Tobramycin section): 16 µg/mL | Peptide MIC + Tobramycin ([2]; P. aeruginosa PA030): 8 µg/mL | Tobramycin MIC + Peptide ([2]; P. aeruginosa PA030): 0.25 µg/mL | Peptide MIC Alone ([2]; P. aeruginosa PA030, Tobramycin section): 16 µg/mL | Peptide MIC + Tobramycin ([2]; P. aeruginosa PA032): 32 µg/mL | Tobramycin MIC + Peptide ([2]; P. aeruginosa PA032): 1 µg/mL | Peptide MIC Alone ([2]; P. aeruginosa PA032, Tobramycin section): 64 µg/mL | Ciprofloxacin MIC + Peptide ([2]; P. aeruginosa PA41): 1 µg/mL | Peptide MIC + Ciprofloxacin ([2]; P. aeruginosa PA41): 4 µg/mL | Peptide MIC Alone ([2]; P. aeruginosa PA41, Ciprofloxacin section): 16 µg/mL | Ciprofloxacin MIC + Peptide ([2]; P. aeruginosa PA77): 1 µg/mL | Peptide MIC + Ciprofloxacin ([2]; P. aeruginosa PA77): 16 µg/mL | Peptide MIC Alone ([2]; P. aeruginosa PA77, Ciprofloxacin section): 32 µg/mL | Peptide MIC ([2]; P. aeruginosa, combination with Ciprofloxacin): 16 | Peptide MIC ([2]; S. aureus, combination with Ciprofloxacin): 2 | Peptide MIC ([2]; S. aureus, combination with Mupirocin): 16 | Peptide MIC + Tobramycin ([2]; S. maltophilia SMA029): 32 µg/mL | Tobramycin MIC + Peptide ([2]; S. maltophilia SMA029): 4 µg/mL | Peptide MIC Alone ([2]; S. maltophilia SMA029, Tobramycin section): 128 µg/mL | Peptide MIC + Tobramycin ([2]; S. maltophilia SMA030): 32 µg/mL | Tobramycin MIC + Peptide ([2]; S. maltophilia SMA030): 4 µg/mL | Peptide MIC Alone ([2]; S. maltophilia SMA030, Tobramycin section): >128 µg/mL | Peptide MIC + Vancomycin ([3]; E. faecalis EFS012): 2 µg/mL | Vancomycin MIC + Peptide ([3]; E. faecalis EFS012): 4 µg/mL | Peptide MIC + Vancomycin ([3]; E. faecalis EFS013): 2 µg/mL | Vancomycin MIC + Peptide ([3]; E. faecalis EFS013): 4 µg/mL | Vancomycin MIC + Peptide ([3]; in combination with the labelled peptide, E. faecium EFM010): 4 µg/mL | Peptide MIC + Vancomycin ([3]; in combination with vancomycin, E. faecium EFM010): 16 µg/mL | Ciprofloxacin MIC + Peptide (S. aureus): 0.125 µg/mL | Peptide MIC + Ciprofloxacin (S. aureus): 4 µg/mL
